Measurements published in patent US5536717A, “7-[4-(substituted amino)-2-butynl]benzo[B]pyrrolo[3,2,1-JK]-[1,4]benzodiazepin-6-ones” (Hoechst Marion Roussel Inc., priority 1993, dated 1996).

Key:
mice = assay: 2-phenyl-1,4-benzoquinone-induced writhing test in mice; assay type: in vivo; settings: phenylquinone writhing
Excerpt: The compounds of Formula I of the present invention are also useful as analgesic agents due to their ability to alleviate pain in mammals.

serotonergic system = assay: L-5-hydroxytryptophan potentiation in rats; assay type: in vivo; settings: male Wistar rats, i.p.; for ED50: Rattus norvegicus, ip, forelimb clonus after pargyline + 5-HTP; for % Potentiation: @ 20 mg/kg, normalized relative to vehicle control
Description: According to the monoamine hypothesis of depression, compounds exert antidepressant activity because they are capable of enhancing central noradrenergic and/or serotonergic function (Shtee and […] 1971; Douglas 1975; Lingjaerde 1973). This procedure is used to evaluate enhanced activity of the serotonergic system. Groups of six male Wistar rats (150-200 g) are used in this test procedure. […] Thirty minutes before the 5-HTP administration, drugs are prepared and dosed using distilled water and, if insoluble, a suitable surfactant is added. Control groups receive vehicle. Drugs are routinely administered i.p. at a dosage volume of 10 ml/kg. L-5-hydroxytrpytophan (Calbiochem-Behring Corp.) is prepared at 1.0 mg/kg in distilled water and is administered i.p. in volumes proportional to 10 ml/kg. Fifteen minutes post-5-HTP treatment, each animal is observed for 10 seconds. Animal observations and 5-HTP administration are done in the presence of "white noise". In a dose range, drugs are administered in a randomized manner. […] Potentiation is expressed as normalized percent potentiation relative to vehicle control. […] An ED50 and 95% confidence limit are determined by Litchfield and Wilcoxon.

## CN1CCN(CC#CCN2C(=O)c3cccc4c3N(CC4)c3ccccc32)CC1.O=C(O)/C=C/C(=O)O [1,2-Dihydro-7-[4-(4-methyl-1-piperazinyl)-2-butynyl]benzo[b]pyrrolo[3,2,1-jk][1,4]benzodiazepin-6-one fumarate]
mice
  Inhibition at 20 mg/kg, s.c.: 44%

## CC1CCN(CC#CCN2C(=O)c3cccc4c3N(CC4)c3ccccc32)CC1 [1,2-Dihydro-7-[4-(4-methyl-1-piperidinyl)-2-butynyl]benzo[b]pyrrolo[3,2,1-jk][1,4]benzodiazepin-6-one hemifumarate]
Serotonergic system
  ED50: 25.3 mg/kg

## CN1CCN(CC#CCN2C(=O)c3cccc4c3N(CC4)c3ccc(Br)cc32)CC1.O=C(O)/C=C/C(=O)O [9-Bromo-1,2-dihydro-7-[4-(4-methyl-1-piperazinyl)-2-butynyl]benzo[b]pyrrolo[3,2,1-jk][1,4]benzodiazepin-6-one fumarate]
Serotonergic system
  % Potentiation: 50%

## CC1CCN(CC#CCN2C(=O)c3cccc4c3N(CC4)c3ccc(Br)cc32)CC1 [9-Bromo-1,2-dihydro-7-[4-(4-methyl-1-piperidinyl)-2-butynyl]benzo[b]pyrrolo[3,2,1-jk][1,4]benzodiazepin-6-one hemifumarate]
mice
  Inhibition at 20 mg/kg, s.c.: 41%

## COc1ccccc1N1CCN(CC#CCN2C(=O)c3cccc4c3N(CC4)c3ccc(Br)cc32)CC1 [9-Bromo-1,2-dihydro-7-[4-[4-(2-methoxyphenyl)-1-piperazinyl]-2-butynyl]-2-butynyl]benzo[b]pyrrolo[3,2,1-jk][1,4]benzodiazepin-6-one]
Serotonergic system
  % Potentiation: 50%

## O=C1c2cccc3c2N(CC3)c2ccc(Br)cc2N1CC#CCN1CCC(n2c(=O)[nH]c3ccccc32)CC1 [9-Bromo-1,2-dihydro-7-[4-[4-(2-oxo-1H-benzimidazol-3-yl)-1-piperidinyl-2-butynyl]benzo[b]pyrrolo[3,2,1-jk][1,4]benzodiazepin-6-one monohydrate]
mice
  Inhibition at 20 mg/kg, s.c.: 42%

## CN(C)CCC=C1c2ccccc2CCc2ccccc21 [Amitriptyline, reference compound]
Serotonergic system
  ED50: 7.1 mg/kg

## CCC(=O)O[C@](Cc1ccccc1)(c1ccccc1)[C@H](C)CN(C)C [Propoxyphene, reference compound]
mice; Mus musculus, sc, read-out: ED50 (writhing inhibition)
  ED50: 3.9 mg/kg
